Assay results as given in publication PMC9182007, “Statistical Methods in the Study of Protein Binding and Its Relationship to Drug Bioavailability in Breast Milk” (Molecules, 2022).
Like-named read-outs stand apart in the source and are kept apart here.

Experiments:
[1] = Milk-to-plasma (M/P) drug concentration ratio obtained in vivo, from literature; set-up: species or system human; details: Table S1, scale of drug penetration into milk 1-4
[2] = biological target: T1, human serum albumin (HSA) (Homo sapiens, UniProt P02768); details: for log k HSA: Table S5, HSA
T1 sequence (P02768 25-609): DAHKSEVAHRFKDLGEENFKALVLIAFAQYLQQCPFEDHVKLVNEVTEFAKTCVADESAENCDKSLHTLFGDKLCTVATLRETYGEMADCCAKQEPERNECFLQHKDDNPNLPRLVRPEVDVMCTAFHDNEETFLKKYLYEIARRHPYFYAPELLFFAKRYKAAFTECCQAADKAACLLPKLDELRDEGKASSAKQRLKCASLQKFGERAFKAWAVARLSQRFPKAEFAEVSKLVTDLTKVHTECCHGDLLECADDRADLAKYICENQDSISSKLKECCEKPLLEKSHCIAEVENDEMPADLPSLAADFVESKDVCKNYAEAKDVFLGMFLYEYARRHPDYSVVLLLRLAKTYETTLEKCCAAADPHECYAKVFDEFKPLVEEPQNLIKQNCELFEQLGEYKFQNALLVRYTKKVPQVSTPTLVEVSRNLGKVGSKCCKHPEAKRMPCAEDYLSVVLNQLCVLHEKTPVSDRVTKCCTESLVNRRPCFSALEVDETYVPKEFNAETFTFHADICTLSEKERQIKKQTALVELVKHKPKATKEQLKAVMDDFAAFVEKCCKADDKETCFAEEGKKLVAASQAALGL
Description: (§1) High performance liquid chromatography was performed using immobilized human serum albumin column (HPLCHSA) and immobilized artificial membrane (HPLCIAM). HPLC was the source of the log k values (logarithm of retention factor), log kHSA and log kIAM.
(§2) High performance liquid chromatography was performed using a chromatography column with immobilized human serum albumin. The assay was performed on a Perkin Elmer Series 200 instrument connected to a UV-VIS spectrometer as detector. The analytical wavelength was the same for all compounds at 210 nm. […] The acetate buffer was prepared by dissolving 0.77 g of ammonium acetate in 1 L of distilled water. The pH was then adjusted with a concentrated ammonia solution using a pH meter.
(§3) The phase flow through the system was set to 0.9 mL/min as recommended by the column manufacturer. The solutions were delivered to the column using an autosampler syringe, the injection size was 10 µL. Since the column could not be thermostated, the room was kept at a constant temperature of 25 degrees Celsius.
(§4) Chromatographic data (retention coefficient, k, and derivative, log k) were obtained with TotalChrom software connected to an HPLC instrument. […] The experiment was then repeated and the collected retention rates were the mean values of both series.

[3] = Table S1, coded 1/0; ref DrugBank [7]; cited from earlier work
[4] = NP TLC on non-impregnated control plates; format: physicochemical; details: Table S3, non-impregnated NP plate; acetonitrile/acetate buffer pH 7.4/methanol 60:20:20
Description: (§5) For TLC chromatography, glass plates 20 × 20 cm from Merck, covered with silica gel with the addition of a fluorescent indicator, were used. Normal phase (NP) plates were used with standard Merck TLC Silica gel 60 F254 plates, while in reverse phase (RP) silanized plates RP-2: Merck TLC Silica gel 60 RP-2 F254 were used.
(§6) Normal and reversed phase thin layer chromatography (NP TLC and RP TLC respectively) was performed using silica-gel-coated glass plates. Half of them were covered with 2 mg/mL bovine serum albumin solution and half remained pure.
(§7) The mobility of the compounds was also determined on the plates with no protein as a modifier. […] The acetate buffer (20 mM) was prepared by dissolving 1.54 g of ammonium acetate in 1 L of distilled water. The pH was then adjusted with a concentrated ammonia solution using a pH meter. The plates were developed in standard, vertical chromatographic chambers, each time using 100 mL of the mobile phase, after the chamber was previously saturated with solvent vapors for approximately 1 h.
(§8) The unfolded-protein-impregnated plates and the control plates were scanned with a Desaga CD 60 densitometer. The values of the delay factor (Rf) were collected, i.e., the ratio of the distance traveled by the substance to be analyzed to the distance traveled through the front of the mobile phase. […] The experiment was repeated (for both BSA-coated and control plates) and the Rf values pooled are the mean of both series of experiments.

[5] = biological target: T2, bovine serum albumin (BSA) (Bos taurus, UniProt P02769); experiment: RP TLC on plates impregnated with bovine serum albumin; format: binding; details: Table S4, RP plate impregnated with 2 mg/mL BSA; pH 7.4 mobile phase
T2 construct: purchased Sigma Aldrich
T2 sequence (P02769 25-607): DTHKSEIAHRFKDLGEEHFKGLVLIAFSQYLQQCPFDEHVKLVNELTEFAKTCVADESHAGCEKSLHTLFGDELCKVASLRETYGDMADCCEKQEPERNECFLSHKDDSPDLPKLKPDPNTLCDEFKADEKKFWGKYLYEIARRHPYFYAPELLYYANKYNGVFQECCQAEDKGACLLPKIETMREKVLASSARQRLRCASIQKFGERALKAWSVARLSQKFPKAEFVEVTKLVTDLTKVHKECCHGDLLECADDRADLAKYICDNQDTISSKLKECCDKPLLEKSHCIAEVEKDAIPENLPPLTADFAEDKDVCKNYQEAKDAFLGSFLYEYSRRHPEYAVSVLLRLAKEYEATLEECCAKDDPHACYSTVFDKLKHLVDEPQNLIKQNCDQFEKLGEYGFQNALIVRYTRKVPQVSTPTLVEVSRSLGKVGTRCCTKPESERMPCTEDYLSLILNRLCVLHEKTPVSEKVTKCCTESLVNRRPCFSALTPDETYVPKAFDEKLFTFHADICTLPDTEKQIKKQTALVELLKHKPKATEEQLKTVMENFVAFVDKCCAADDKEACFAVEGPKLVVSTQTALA

[6] = RP TLC on non-impregnated control plates; format: physicochemical; details: Table S4, non-impregnated RP plate; acetonitrile/acetate buffer pH 7.4/methanol 60:20:20
Description: as §5, §6, §7, §8

[7] = HPLC on immobilized artificial membrane column (HPLCIAM); format: physicochemical; details: for log k IAM: Table S5, IAM column, pH 7.4; for k IAM: Table S5, retention factor, IAM column, phosphate buffer pH 7.4/acetonitrile 80:20
Description: as §1
The second experiment was performed using an immobilized artificial membrane (IAM) column. The assay was also performed on a Perkin Elmer Series 200 instrument connected to a UV-VIS spectrometer as the detector. The analytical wavelength was the same for all compounds, at 210 nm. […] The mobile phase was a mixture of 10 mM phosphate buffer pH 7.4 and acetonitrile in the ratio 80:20 (v/v). The phosphate buffer was obtained by dissolving the finished tablet in the appropriate amount of distilled water (1 tablet per 200 mL). In this case, it was not necessary to adjust the pH of the buffer using a pH meter.
The phase flow through the system was set to 0.5 mL/min as recommended by the column manufacturer. The solutions were delivered to the column using an autosampler syringe, the injection size was 10 µL.
The experiment was then repeated and the collected retention rates were the mean values of both series.

[8] = biological target: T2, bovine serum albumin (BSA); experiment: NP TLC on plates impregnated with bovine serum albumin; format: binding; details: Table S3, NP plate impregnated with 2 mg/mL BSA; pH 7.4 mobile phase
Excerpt: Chromatographic descriptors were obtained in experiments, thin layer chromatography in normal (NP TLC) and reversed mode (RP TLC). The stationary phase was modified with bovine serum albumin (BSA). TLC was the source of retention factor (Rf) values, denoted in statistical models as NP and RP.
as §5
The stationary phase of the plates, both NP and RP, was modified with an aqueous solution of bovine serum albumin purchased from Sigma Aldrich (bovine serum albumin, lyophilized powder).
The impregnation of the plates was carried out with a 2 mg/mL solution applied to the surface using a Desaga SG 1 hand sprayer; the plates were then air dried. […] Normal and reversed phase thin layer chromatography (NP TLC and RP TLC respectively) was performed using silica-gel-coated glass plates. Half of them were covered with 2 mg/mL bovine serum albumin solution and half remained pure.
as §7, §8

[9] = Table S1; source not stated; cited from earlier work
[10] = Table S1, milk/plasma drug concentration ratio, in vivo; cited from earlier work
plasma protein = details: Table S1, plasma protein binding given as fraction; ref DrugBank [7]; cited from earlier work
[11] = biological target: T1, human serum albumin (HSA); experiment: in vitro; details: immobilized hsa column, pH 7.4
Description: as §1, §2, §3, §4

[12] = Table S5, retention factor, HSA column, pH 7.4, 25 degrees Celsius

SMILES	M/P code [1]	log k HSA ([2]; pH 7.4)	k HSA [2, 12]	CNS+/- [3]	CNP (Rf, control NP plate) [4]	RP (Rf, BSA-impregnated RP plate) [5]	CRP (Rf, control RP plate) [6]	log k IAM [7]	k IAM [7]	NP (Rf, BSA-impregnated NP plate) [8]	BB vivo [9]	M/P [10]	PB (plasma protein)	chromatographic logD [11]	k HSA ([2]; pH 7.4)
NC(=O)N1c2ccccc2C=Cc2ccccc21 [carbamazepine]	2 (2 corresponds to the range of 0.40–0.80—at the safety limit)	0.04	1.09	1	0.95	0.84	0.83	0.18	1.50	0.95	-0.070	0.558	0.76	–	–
CN/C(=N/CCSCc1nc[nH]c1C)NC#N [cimetidine]	4 (4 is M/P >1.20—dangerous)	–	0.67	0	0.64	0.87	0.88	-0.58	0.26	0.67	-1.420	1.7	0.17	-0.17	–
CN1C(=O)CC(=O)N(c2ccccc2)c2cc(Cl)ccc21 [clobazam]	1 (Code 1 corresponds to drugs with an M/P value <0.40—completely safe)	–	–	1	0.95	0.80	0.79	0.41	2.58	0.95	0.350	0.25	0.85	0	1.01
Clc1cccc(Cl)c1N=C1NCCN1 [clonidine]	4 (4 is M/P >1.20—dangerous)	–	1.35	1	0.49	0.68	0.73	0.45	2.83	0.50	0.150	2	0.3	0.13	–
CN1CCN2c3ccccc3Cc3ccccc3C2C1 (centres unmarked) [mianserin]	4 (4 is M/P >1.20—dangerous)	–	6.39	1	0.54	0.55	0.55	1.34	21.72	0.55	0.990	2.2	0.9	0.81	–
Cc1ncc2n1-c1ccc(Cl)cc1C(c1ccccc1F)=NC2 [midazolam]	2 (2 corresponds to the range of 0.40–0.80—at the safety limit)	–	–	1	0.82	0.66	0.66	0.76	5.69	0.83	0.398	0.785	0.97	0.51	3.22
CN1CCN2c3ncccc3Cc3ccccc3C2C1 (centres unmarked) [mirtazapine]	3 (3 range 0.81–1.20—possibly over the safety limit)	–	2.96	1	0.39	0.58	0.58	0.77	5.83	0.39	0.530	1.1	–	0.47	–
CC(=O)Nc1ccc(O)cc1 [paracetamol]	3 (3 range 0.81–1.20—possibly over the safety limit)	-0.55	0.28	1	0.93	0.92	0.92	-0.49	0.32	0.94	-0.463	0.84	0.25	–	–
O=C1NC(=O)C(c2ccccc2)(c2ccccc2)N1 [phenytoin]	1 (Code 1 corresponds to drugs with an M/P value <0.40—completely safe)	–	1.63	1	0.97	0.86	0.87	0.25	1.78	0.97	-0.096	0.29	0.9	0.21	–
